Results on 13 compounds are retold here after ChEMBL document CHEMBL4616724, “Topoisomerase Inhibitors Addressing Fluoroquinolone Resistance in Gram-Negative Bacteria” (J Med Chem, 2020).

Series [1] deals with Escherichia coli. As to the kind of experiment: Antibacterial activity against wild type Escherichia coli ATCC 25922 at pH 7.4 by CLSI-based broth microdilution assay. Type of series: functional. In general terms: Broth dilution looks for growth in wells or tubes with falling amounts of substance.
The subject of series [2] is Pseudomonas aeruginosa. As to the kind of experiment: Antibacterial activity against Pseudomonas aeruginosa K1542/K767 harboring MexB/MexXY deletion mutant by CLSI-based broth microdilution assay. Type of series: functional.
Series [3] has as its system Pseudomonas aeruginosa. As to the kind of experiment: Antibacterial activity against Pseudomonas aeruginosa NB52023 harboring gyrA T83I mutant/ParC S87L mutant by CLSI-based broth microdilution assay. Type of series: functional.
Series [4] deals with Escherichia coli. As to the kind of experiment: Antibacterial activity against Escherichia coli BW25113/JW0451-2 harboring AcrB deletion mutant by CLSI-based broth microdilution assay. Type of series: functional.
In series [5] the test system is Pseudomonas aeruginosa. As to the kind of experiment: Antibacterial activity against wild type Pseudomonas aeruginosa PAO1 K767 by CLSI-based broth microdilution assay. The class given is functional.
Series [6] concerns Klebsiella pneumoniae. As to the kind of experiment: Antibacterial activity against wild type Klebsiella pneumoniae ATCC 43816 by CLSI-based broth microdilution assay. Type of series: functional.
The subject of series [7] is Escherichia coli. The series can be described thus: Ratio of MIC for antibacterial activity against wild type Escherichia coli ATCC 25922 at pH 5.8 to MIC for antibacterial activity against wild type Escherichia coli ATCC 25922 at pH 7.4. The class given is functional.
Series [8] deals with Escherichia coli. The series can be described thus: Antibacterial activity against wild type Escherichia coli ATCC 25922 at pH 5.8 by CLSI-based broth microdilution assay. The class given is functional.
The nature of series [9]: Solubility of the compound in pH 7 PBS incubated for 24 hrs under gently shaking condition by UPLC/UV/CLND/MS analysis. The class given is physicochemical.
Series [10] is described as follows: n-Octanol-PBS buffer partition coefficient, log D of the compound at pH 7.4 after overnight incubation by LC/UV/qTOF analysis. The class given is physicochemical.
Series [11] is described as follows: Protein binding in CD1 mouse plasma at 10 uM incubated for 4 hrs under shaking condition by LC-MS/MS analysis. The settings on record: read-out: PPB (converted). Type of series: ADME, cell-free.
Series [12] in a line: Protein binding in pooled human plasma at 10 uM incubated for 4 hrs under shaking condition by LC-MS/MS analysis. Type of series: ADME, cell-free. Conditions: read-out: PPB (converted).
The nature of series [13]: Inhibition of recombinant full-length C-terminal His6-tagged Escherichia coli DNA topoisomerase 4 subunit ParC/ParE using kinetoplast DNA as substrate preincubated for 30 mins followed by substrate addition and measured after 1 hr in presence of ATP by size exclusion chromatography. (Size exclusion chromatography separates by hydrodynamic size, large species first.)
A short description of series [14]: Protein binding in Sprague-Dawley rat plasma at 10 uM incubated for 4 hrs under shaking condition by LC-MS/MS analysis. Type of series: ADME, cell-free. The settings on record: read-out: PPB (converted).
Series [15] is described as follows: Intrinsic clearance in rat liver microsomes at 1 uM in presence of NADPH and measured up to 30 mins by LC-MS/MS analysis. The class given is ADME, Microsome. The settings on record: read-out: CLH. A general note: Liver microsomes are vesicles of endoplasmic reticulum, rich in cytochrome P450 enzymes.
Series [16] can be described thus: Intrinsic clearance in human liver microsomes at 1 uM in presence of NADPH and measured up to 30 mins by LC-MS/MS analysis. The class given is ADME, Microsome. The settings on record: read-out: CLH.
Series [17] has as its target DNA gyrase (Escherichia coli, UniProt P0AES4+P0AES6). As to the kind of experiment: Inhibition of recombinant full-length C-terminal His6-tagged Escherichia coli DNA gyrase AB supercoiling activity using relaxed DNA as substrate preincubated for 30 mins followed by substrate addition and measured after 2 hrs in presence of ATP by size exclusion HPLC analysis. Type of series: protein-complex assay.

Converted amounts (≈) assume the structure as drawn.

The term MIC denotes the smallest concentration in the dilution series that meets the test's criterion for growth inhibition. A low value points to a more susceptible organism. Consider `Cc1c(N2CC[C@@H]([C@H](C)N)C2)c(F)cc2c(Cl)cc(=O)n(C3CC3)c12`, for which the MIC in series [1] is 2 µg/mL (≈ 5.5 µM); in series [2], 4 µg/mL (≈ 11 µM); in series [3], 8 µg/mL (≈ 22 µM); in series [4], 0.06 µg/mL (≈ 0.165 µM); in [5] it was 8 µg/mL (≈ 22 µM); in [6], 4 µg/mL (≈ 11 µM).

In the case of `Cc1c(N2CC[C@@H]([C@H](C)N)C2)c(F)cc2c(C#N)cc(=O)n(C3CC3)c12`, the MIC in series [1] is 1 µg/mL (≈ 2.82 µM); in series [2] it was 1 µg/mL (≈ 2.82 µM); in series [3], 1 µg/mL (≈ 2.82 µM); in [4] it was not above 0.03 µg/mL; in series [5], 4 µg/mL (≈ 11.3 µM); in series [6], 2 µg/mL (≈ 5.64 µM).

With `Cc1c(N2CC[C@@H]([C@H](C)N)C2)c(F)cc2c(OCCN(C)C)cc(=O)n(C3CC3)c12`, the MIC in [1] turned out to be 1 µg/mL (≈ 2.4 µM); in [2] it was 4 µg/mL (≈ 9.6 µM); in series [3], 8 µg/mL (≈ 19.2 µM); in series [5], 8 µg/mL (≈ 19.2 µM); in [6], 4 µg/mL (≈ 9.6 µM).

As to `NCc1cc(=O)n(C2CC2)c2c(OC(F)F)c(N3CC4CC4(N)C3)c(F)cc12` (stereo not given), the MIC in series [1] was 2 µg/mL (≈ 5.07 µM); in [2], 8 µg/mL (≈ 20.3 µM); in [3], 32 µg/mL (≈ 81.1 µM); in series [4] it was 1 µg/mL (≈ 2.54 µM); in series [5], more than 32 µg/mL; in series [6], 8 µg/mL (≈ 20.3 µM).

As for `COc1c(N2CC3(C)CC3(N)C2)c(F)cc2c(CN)cc(=O)n(C3CC3)c12` (stereo not given), the MIC in series [1] is 1 µg/mL (≈ 2.68 µM); in series [2], 8 µg/mL (≈ 21.5 µM); in [3], 16 µg/mL (≈ 43 µM); in series [4], 0.25 µg/mL (≈ 0.671 µM); in [5] it was 32 µg/mL (≈ 85.9 µM); in series [6], 4 µg/mL (≈ 10.7 µM).

For the compound `Cc1c(N2C[C@@H]3[C@@H](N)[C@@H]3C2)c(F)cc2c(CN)cc(=O)n(C3CC3)c12`, the MIC stood at 1 µg/mL (≈ 2.92 µM) in series [1]; 1 µg/mL (≈ 2.92 µM) in [2]; 2 µg/mL (≈ 5.84 µM) in series [3]; 0.25 µg/mL (≈ 0.73 µM) in series [4]; 16 µg/mL (≈ 46.7 µM) in series [5]; 4 µg/mL (≈ 11.7 µM) in [6].

For `Cc1c(N2CC3CC3(N)C2)c(F)cc2c(CN)c(O)c(=O)n(C3CC3)c12` (stereo not given), the MIC in [1] came out at 0.5 µg/mL (≈ 1.4 µM); in series [2], 0.5 µg/mL (≈ 1.4 µM); in series [3] it was 2 µg/mL (≈ 5.58 µM); in series [4], 0.25 µg/mL (≈ 0.698 µM); in series [5], 2 µg/mL (≈ 5.58 µM); in series [6] it was 1 µg/mL (≈ 2.79 µM).

`Cc1c(CN)c2cc(F)c(N3CC4CC4(N)C3)c(C)c2n(C2CC2)c1=O` (stereo not given): the MIC in series [1] is 0.25 µg/mL (≈ 0.701 µM); in series [2], 1 µg/mL (≈ 2.81 µM); in series [3] it was 2 µg/mL (≈ 5.61 µM); in series [4] it was 0.125 µg/mL (≈ 0.351 µM); in series [5], 8 µg/mL (≈ 22.4 µM); in [6], 1 µg/mL (≈ 2.81 µM).

Turning to `Cc1c(N2CC[C@H](O)C2)c(F)cc2c(CN)cc(=O)n(C3CC3)c12`, the MIC in series [1] was 0.5 µg/mL (≈ 1.51 µM); in series [2], 0.25 µg/mL (≈ 0.754 µM); in series [3], 1 µg/mL (≈ 3.02 µM); in series [8], 8 µg/mL (≈ 24.1 µM); in series [4], not above 0.03 µg/mL; in series [5], 4 µg/mL (≈ 12.1 µM). In addition, the minimal inhibitory concentration (MIC) in [6] is 1 µg/mL (≈ 3.02 µM). Moreover, the Ratio in series [7] turned out to be 16.

One may read the solubility as the concentration that dissolves in the medium under given conditions. Read a low solubility as little dissolved substance. Regarding `Cc1c(-c2cc(F)c(N)cc2F)c(F)cc2c(CN)cc(=O)n(C3CC3)c12`, the MIC in series [1] is 0.25 µg/mL (≈ 0.67 µM); in series [2], 2 µg/mL (≈ 5.36 µM); in series [3] it was 8 µg/mL (≈ 21.4 µM); in [4], not above 0.03 µg/mL; in [5], 8 µg/mL (≈ 21.4 µM); in [6] it was 1 µg/mL (≈ 2.68 µM). Besides, in [9] (buffer, pH 7, 24 h), the solubility entry is reported as “Insoluble”.

For `Cc1c(N2CCC3CC3(N)C2)c(F)cc2c(CN)cc(=O)n(C3CC3)c12` (stereo not given), the MIC came out at 4 µg/mL (≈ 11.2 µM) in series [1]; 4 µg/mL (≈ 11.2 µM) in [2]; 16 µg/mL (≈ 44.9 µM) in [3]; 1 µg/mL (≈ 2.81 µM) in series [4]; 16 µg/mL (≈ 44.9 µM) in [5]; 4 µg/mL (≈ 11.2 µM) in series [6].

For orientation: logD means the decadic logarithm of the distribution of all forms, ionised or not, between an organic phase and buffer at a given pH. For orientation: IC50 means the concentration at which inhibition is half-maximal. As to `Cc1c(N2CC[C@@H]([C@H](C)N)C2)c(F)cc2ccc(=O)n(C3CC3)c12`, the MIC worked out at 1 µg/mL (≈ 3.04 µM) in series [1]; 4 µg/mL (≈ 12.1 µM) in series [2]; 8 µg/mL (≈ 24.3 µM) in [3]; 16 µg/mL (≈ 48.6 µM) in [8]; 0.06 µg/mL (≈ 0.182 µM) in series [4]; 16 µg/mL (≈ 48.6 µM) in [5]. The compound also showed an MIC in series [6] of 4 µg/mL (≈ 12.1 µM). The same compound showed a logD in series [10] of 0.74. Also, the fraction unbound at 4 h, 10 µM is 0.19 in [11], 0.1 in [12] and 0.25 in [14]. Further, the IC50 in series [13] was 390 nM; in series [17] it was 430 nM. This compound showed a solubility at 24 h in [9] (PBS, pH 7) of 498 µg/mL (≈ 1510 µM). In addition, the figures for the microsomal CLint at 1 µM in [15] and in series [16] were 10 µL/min/mg and less than 7.7 µL/min/mg, respectively.

As to `COc1cc(=O)n(C2CC2)c2c(C)c(N3CC[C@@H]([C@H](C)N)C3)c(F)cc12`, the MIC in series [1] was 32 µg/mL (≈ 89 µM); in [2] it was 8 µg/mL (≈ 22.3 µM); in series [3], 16 µg/mL (≈ 44.5 µM); in series [4], 1 µg/mL (≈ 2.78 µM); in [5] it was 32 µg/mL (≈ 89 µM); in series [6] it was 16 µg/mL (≈ 44.5 µM).
